# Measurements: patent publication US20200268864A1, “CANCER VACCINE COMPOSITIONS AND METHODS FOR USING SAME TO TREAT CANCER” (Dana-Farber Cancer Institute, Inc., priority 2017, published 2020)
# Entries after “also recorded” stand apart in the source; their conditions may differ.
# What was measured:
# [1] = tested on: human DCs co-cultured with UWB1.289; assay: Co-culture of human DCs with olaparib-treated UWB1.289 cells; format: cell-based; details: BRCA1-deficient UWB1.289
# Procedure: Bone marrow cells were isolated from FVB/NJ mice and cultured in RPMI-1640 containing 10% FBS and 20 ng/ml GM-CSF. BMDCs (bone marrow derived dendritic cells) were harvested for in vitro co-culture assay on day 7 to day 10. About 3×10^5 PBM or PPM tumor cells were cultured in a 6-well plate for 24 hr. and then treated with DMSO or olaparib. After 24 hr incubation with DMSO, olaparib, or olaparib in combination with other drugs (cell cycle inhibitor or apoptosis inhibitor), drugs were removed and tumor cells were washed twice with PBS. BMDCs were added and co-cultured with PBM or PPM cells at a ratio of 1:1 in 1.5 ml culture media in the presence of GM-CSF (20 ng/ml) and lipofectamine (2 μl) for 24 hr. Co-cultured cells were harvested for flow cytometry analysis and floating cells (percentage of BMDCs is about 90%), or RNA analysis. Cell culture supernatants were collected for detection of IFN-β with the ELISA kit. BMDCs generated from C57BL/6J mice were applied for the coculture of BMDCs with ID8 tumor cells. Human dendritic cells purchased from Lonza were used for the coculture of human DCs with DMSO or olaparib-treated human ovarian cancer cells ([…] and UWB1.289+BRCA1).
# PPM cells = assay: Cytosolic dsDNA (PicoGreen) and micronuclei staining, PPM cells; format: cell-based, mouse; details: 2.5 μM, 24 h
# Procedure: (§1) PBM and PPM cells were cultured on chambered cell culture slides (BD Falcon). Cells were treated with 2.5 μM olaparib or vehicle control (DMSO) for 24 hours. Following the treatment, cells were incubated with culture media containing PicoGreen double-stranded DNA stain (200-fold dilution, Life Technologies). After one-hour incubation, cells were fixed with 4% paraformaldehyde in PBS (Santa Cruz Biotechnology) for 10 minutes. Cells were then washed twice with PBS and stained with 300 nM DAPI (Thermo Fisher Scientific) for 10 minutes. Coverslips were mounted using ProLong Diamond Antifade Mountant (Thermo Fisher Scientific). Staining was imaged using a Leica SP5X laser scanning confocal microscope.
# [2] = tested on: STING pathway in BMDCs co-cultured with ID8 cells; assay: Co-culture of BMDCs with drug-treated WT or Brca1-null ID8 cells; format: cell-based, mouse; details: co-cultured with drug-treated Brca1-null ID8 cells
# Procedure: Brca-1 deficient ID8 cells were generated using a CRISPR double nickase plasmid. ID8 cells cultured in a 6-well plate were transfected with 2 μg/well of BRCA1 double nickase plasmid (sc419362-NIC, Santa Cruz Biotechnology) or control double nickase plasmid (SC-437281, Santa Cruz Biotechnology) using lipofectamine 3000 (Invitrogen). 48 hrs post-transfection, cells were passaged onto a 10 cm plate. After 24 h, puromycin (3 μg/mL) was added to the culture for selection. Puromycin resistant cells were selected and expanded. Due to a lack of a reliable mouse BRCA1 antibody for Western blot, cells were analyzed by DNA sequencing to confirm the disruption of functional Brca1 allele. To generate ID8 tumors, cultured ID8 cells were harvested and resuspended in serum free DMEM. Cells were then mixed with Matrigel (Corning). A total volume of 0.1 ml containing 5×10^6 ID8 cells and 40% Matrigel were injected subcutaneously into the flank of C57BL/6J mice.
# Bone marrow cells were isolated from FVB/NJ mice and cultured in RPMI-1640 containing 10% FBS and 20 ng/ml GM-CSF. BMDCs (bone marrow derived dendritic cells) were harvested for in vitro co-culture assay on day 7 to day 10. About 3×10^5 PBM or PPM tumor cells were cultured in a 6-well plate for 24 hr. and then treated with DMSO or olaparib. […]
# PBM tumor-bearing mice = assay: Flow cytometry of peripheral blood and splenic immune cells; details: mouse, in vivo
# Procedure: Tumors were first mechanically disrupted by chopping, then chemically digested in collagenase buffer (8 mL DMEM, 0.1 mL 1M HEPES, 0.5 mL FBS, 0.2 mL Pen/Strep, 1 m, 10× collagenase/hyaluronidase (Stemcell Technologies), 0.2 mL of 1 mg/mL DNase I (Stemcell Technologies) at 37° C. for 45 min. Single-cell suspensions of spleen and lymph nodes were obtained by mashed through a 70 um strainer using the plunger of a 3 mL or 5 mL syringe. Single cells suspensions were treated with red blood lysis buffer (4 mL NH4Cl+1 mL PBS with 2% calf serum) and washed with FACS buffer. Single cells suspensions were incubated with LIVE/DEAD Fixable Aqua Dead Cell Stain (Life Technologies, Cat # L34965) for 30 min and then blocked with anti-CD16/32 (BioLegend, clone 93) for 20 min on ice. Samples were then incubated with appropriate antibodies for 30 min. on ice. The Foxp3 staining buffer set (eBioscience, Cat #00-5523-00) was applied for intracellular markers staining. For the intracellular cytokine analysis, cells were stimulated with Leukocyte Activation Cocktail (BD Biosciences, Cat #550583) at 37° C. for 5 hours prior to FACS staining. The following antibodies were used in the experiments and were purchased from BioLegend unless otherwise indicated: CD45 (clone 30-F11), TCRβ (clone H57-597), CD4 (clone RM4-5), CD8 (clone 53-6.7), CD44 (clone IM7), CD62L (MEL-14), CD25 (PC61), IFNγ (clone XMG1.2), TNFα(clone MP6-XT22), PD-1 (clone 29F.1A12), Tim-3 (clone RMT3-23), LAG-3 (clone C9B7W), CD11b (clone M1/70), CD11c (clone […]), F4/80 (clone BM8), Gr-1 (clone RB6-BC5), Ly-6C (clone HK1.4), Ly-6G (clone 1A8), MHCII (clone M5/114.15.2), CD80 (clone 16-10A1), CD86 (clone GL-1), MHC1 (clone KH114). FoxP3 (clone FJK-16 s; eBioscience), Phospho-IRF-3 (Ser396) (clone D6O1M, Cell signaling technology), Phospho-TBK1/NAK (Ser172) (clone D52C2, Cell signaling technology), and LIVE/DEAD® Fixable Aqua Dead Cell Stain Kit (Life Technologies Cat L34965). Flow cytometry was performed on an LSR II (BD Biosciences) or LSRFortessa™ HTS (BD Biosciences) at the DFCI flow cytometry core facility, and all the data were analyzed using FlowJo software.
# PBM cells = assay: Cytosolic dsDNA (PicoGreen) and micronuclei staining, PBM cells; format: cell-based, mouse; details: 2.5 μM, 24 h
# Procedure: as §1
structure (smiles),measurement,setting,value
"O=C(c1cc(Cc2n[nH]c(=O)c3ccccc23)ccc1F)N1CCN(C(=O)C2CC2)CC1 [olaparib, Olaparib]",levels of p-TBK1+p-IRF3+ and IFN-β in human DCs,[1],Increased levels
same,cytosolic dsDNAs and micronuclei,PPM cells,not
same,p-TBK1+p-IRF3+ and IFN-β (STING pathway activation) in wild-type BMDCs,[2],Increased; also recorded: activation of STING pathway occurred
same,IFN gamma and TNF alpha production by peripheral blood CD8+ T cells,PBM tumor-bearing mice,enhanced
same,"expression of PD-1, Tim3, and Lag3 co-inhibitory receptors on splenic CD8+ T cells",PBM tumor-bearing mice,reduced
same,gMDSC and mMDSC in the peripheral blood,PBM tumor-bearing mice,decreased
same,number of CD8+ T cells in the spleens,PBM tumor-bearing mice,significantly increased
same,number of MDSCs in the spleens,PBM tumor-bearing mice,significantly reduced
same,cytosolic dsDNAs and micronuclei,PBM cells,increased
